Laboratory results taken from US11203600B2 (Denali Therapeutics Inc., priority 2017, dated 2021).

molecular target: GST-hRIPK1 (8-327) (Homo sapiens (Human), UniProt Q13546); assay: Fluorescent Polarization Binding (FP Binding) assay, RIPK1; conditions: 10 nM GST-hRIPK1 (8-327), 5 nM fluorescent-labeled ligand, RT, 30 min, mean of at least two independent experiments
Method in brief: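 Compound displacement of 5 nM labelled ligand from 10 nM GST-hRIPK1 (8-327) was read as FP (531/595 nm) after 30 min at RT. Buffer: HEPES pH 7.5, NaCl, MgCl2, CHAPS, DTT, Pluronic; 1% DMSO final. IC50s were averaged over at least two independent runs.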

GST-hRIPK1 (8-327), sequence (Q13546 8-327): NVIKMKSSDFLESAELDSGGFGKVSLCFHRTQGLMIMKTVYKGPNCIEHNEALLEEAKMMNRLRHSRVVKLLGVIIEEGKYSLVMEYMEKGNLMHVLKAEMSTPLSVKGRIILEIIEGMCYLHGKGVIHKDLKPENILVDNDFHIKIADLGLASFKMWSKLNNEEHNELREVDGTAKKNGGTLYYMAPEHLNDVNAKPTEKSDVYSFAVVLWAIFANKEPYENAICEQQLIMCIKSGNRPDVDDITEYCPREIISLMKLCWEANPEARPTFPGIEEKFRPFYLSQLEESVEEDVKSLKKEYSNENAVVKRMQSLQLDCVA

With N#Cc1cncc2c1OCCN(C(=O)C1(C(F)(F)F)CCC1)C2 [Example 53, 4-[1-(trifluoromethyl)cyclobutanecarbonyl]-3,5-dihydro-2H-pyrido[3,4-f][1,4]oxazepine-9-carbonitrile] as the molecule, how does the IC50 read?
The IC50 was 100 to 1000 nM.

Which IC50 does the source give for CSC(C)(C)C(=O)N1CCOc2c(C#N)cncc2C1 [Example 148, 4-(2-methyl-2-methylsulfanyl-propanoyl)-3,5-dihydro-2H-pyrido[3,4-f][1,4]oxazepine-9-carbonitrile] here?
Its IC50 is 0.1 to 100 nM.

N#Cc1cncc2c1OCCN(C(=O)C1(F)CCN(c3ncc(OC(F)F)cn3)CC1)C2 [Example 102, 4-[1-[5-(difluoromethoxy)pyrimidin-2-yl]-4-fluoro-piperidine-4-carbonyl]-3,5-dihydro-2H-pyrido[3,4-f][1,4]oxazepine-9-carbonitrile] was tested. Which IC50 did it give?
Its IC50 is 100 to 1000 nM.

How did the IC50 turn out when CCC1(C(=O)N2CCOc3c(C#N)cncc3C2)CCC1 [Example 64, 4-(1-ethylcyclobutanecarbonyl)-3,5-dihydro-2H-pyrido[3,4-f][1,4]oxazepine-9-carbonitrile] was run?
The IC50 was 100 to 1000 nM.

With CC(CC(F)(F)F)C(=O)N1CCOc2c(C#N)cncc2C1 (stereo not drawn) [Example 141, 4-(4,4,4-trifluoro-2-methyl-butanoyl)-3,5-dihydro-2H-pyrido[3,4-f][1,4]oxazepine-9-carbonitrile] as the molecule, how does the IC50 read?
The IC50 was 100 to 1000 nM.

With N#Cc1cncc2c1OCCN(C(=O)C1(F)CCN(c3ccnc(C(F)(F)F)n3)CC1)C2 [Example 171] as the molecule, how does the IC50 read?
The IC50 was 100 to 1000 nM.

For CC(C)(COC(F)(F)F)C(=O)N1CCOc2c(C#N)cncc2C1 [Example 51, 4-[2,2-dimethyl-3-(trifluoromethoxy)propanoyl]-3,5-dihydro-2H-pyrido[3,4-f][1,4]oxazepine-9-carbonitrile], which IC50 is on record?
Its IC50 is 0.1 to 100 nM.

With N#Cc1cncc2c1OCCN(C(=O)C1(F)CC1)C2 [Example 140, 4-(1-fluorocyclopropanecarbonyl)-3,5-dihydro-2H-pyrido[3,4-f][1,4]oxazepine-9-carbonitrile] as the molecule, how does the IC50 read?
Its IC50 is > 1000 nM.

How did the IC50 turn out when CCC(C)(CC#N)C(=O)N1CCOc2c(F)cncc2C1 (stereo not drawn) [Example 73, 3-(9-fluoro-3,5-dihydro-2H-pyrido[3,4-f][1,4]oxazepine-4-carbonyl)-3-methyl-pentanenitrile] was run?
The IC50 was 100 to 1000 nM.

COC1(C(=O)N2CCOc3c(F)cncc3C2)CCN(c2ncccn2)CC1 [Example 135, (9-fluoro-3,5-dihydro-2H-pyrido[3,4-f][1,4]oxazepin-4-yl)-(4-methoxy-1-pyrimidin-2-yl-4-piperidyl)methanone] was tested. Which IC50 did it give?
Its IC50 is 0.1 to 100 nM.

With COc1nc(N2CCC(OC)(C(=O)N3CCOc4c(F)cncc4C3)CC2)ncc1F [Example 122, (9-fluoro-3,5-dihydro-2H-pyrido[3,4-f][1,4]oxazepin-4-yl)-[1-(5-fluoro-4-methoxy-pyrimidin-2-yl)-4-methoxy-4-piperidyl]methanone] as the molecule, how does the IC50 read?
Its IC50 is 0.1 to 100 nM.

Which IC50 does the source give for COC1(C(=O)N2CCOc3c(F)cncc3C2)CCN(c2ncc(F)cn2)CC1 [Example 121] here?
The IC50 was 0.1 to 100 nM.

N#Cc1cncc2c1OCCN(C(=O)C1(F)CCN(c3ncc(F)cn3)CC1)C2 [Example 161, 4-[4-fluoro-1-(5-fluoropyrimidin-2-yl)piperidine-4-carbonyl]-3,5-dihydro-2H-pyrido[3,4-f][1,4]oxazepine-9-carbonitrile] was tested. Which IC50 did it give?
Its IC50 is 0.1 to 100 nM.

How did the IC50 turn out when CC(C)(C(=O)N1CCOc2c(C#N)cccc2C1)C(F)F [Example 23, 4-(3,3-difluoro-2,2-dimethyl-propanoyl)-3,5-dihydro-2H-1,4-benzoxazepine-9-carbonitrile] was run?
Its IC50 is 0.1 to 100 nM.

For N#Cc1cncc2c1OCCN(C(=O)C1CCN(c3ncc(F)cn3)CC1)C2 [Example 155, 4-[1-(5-fluoropyrimidin-2-yl)piperidine-4-carbonyl]-3,5-dihydro-2H-pyrido[3,4-f][1,4]oxazepine-9-carbonitrile], which IC50 is on record?
Its IC50 is 0.1 to 100 nM.

same assay, conditions: GST-hRIPK1 (8-327), mean of at least two independent experiments

Which IC50 does the source give for CC1(C(=O)N2CCOc3c(C#N)cncc3C2)CCN(c2ncccn2)CC1(F)F (single isomer, unassigned) [Example 297, 4-[3,3-Difluoro-4-methyl-1-pyrimidin-2-yl-piperidine-4-carbonyl]-3,5-dihydro-2H-pyrido[3,4-f][1,4]oxazepine-9-carbonitrile] here?
The IC50 was 0.1 to 100 nM.

For CCC(C)(OC)C(=O)N1CCOc2c(C#N)cncc2C1 (single isomer, unassigned) [Example 282, 4-(2-Methoxy-2-methyl-butanoyl)-3,5-dihydro-2H-pyrido[3,4-f][1,4]oxazepine-9-carbonitrile], which IC50 is on record?
The IC50 was 100 to 1000 nM.

COc1nc(N2CCC(OC)(C(=O)N3CCOc4c(C#N)cncc4C3)CC2)c(F)cc1F [Example 289, 4-[1-(3,5-difluoro-6-methoxy-2-pyridyl)-4-methoxy-piperidine-4-carbonyl]-3,5-dihydro-2H-pyrido [3,4-f][1,4]oxazepine-9-carbonitrile] was tested. Which IC50 did it give?
Its IC50 is 0.1 to 100 nM.

For CC(C)(C(=O)N1CCOc2c(C#N)cncc2C1)C1CCN(c2ncc(F)cn2)C1 (single isomer, unassigned) [Example 281, 4-[2-(-1-(5-Fluoropyrimidin-2-yl)pyrrolidin-3-yl)-2-methyl-propanoyl]-3,5-dihydro-2H-pyrido[3,4-f][1,4]oxazepine-9-carbonitrile], which IC50 is on record?
Its IC50 is 0.1 to 100 nM.

Which IC50 does the source give for CC(C)(C(=O)N1CCOc2c(C#N)cncc2C1)C1CC(Cl)C1 (stereo not drawn) [Example 278, 4-[2-(3-chlorocyclobutyl)-2-methyl-propanoyl]-3,5-dihydro-2H-pyrido[3,4-f][1,4]oxazepine-9-carbonitrile] here?
Its IC50 is 0.1 to 100 nM.

Which IC50 does the source give for CC(C)(C(=O)N1CCOc2c(C#N)cncc2C1)[C@H]1C[C@H](Cn2nccn2)C1 [Example 290, trans-4-[2-methyl-2-[3-(triazol-2-ylmethyl)cyclobutyl]propanoyl]-3,5-dihydro-2H-pyrido [3,4-f][1,4]oxazepine-9-carbonitrile] here?
The IC50 was 100 to 1000 nM.

With CC(C)(C(=O)N1CCOc2c(C#N)cncc2C1)C1CC(n2cc(F)cn2)C1 (stereo not drawn) [Example 277, 4-[2-[3-(4-fluoropyrazol-1-yl)cyclobutyl]-2-methyl-propanoyl]-3,5-dihydro-2H-pyrido[3,4-f][1,4]oxazepine-9-carbonitrile] as the molecule, how does the IC50 read?
Its IC50 is 100 to 1000 nM.

O=C(C1CCN(c2ccnc3ccnn23)CC1(F)F)N1CCOc2c(F)cncc2C1 (stereo not drawn) [Example 252, (3,3-difluoro-1-pyrazolo[1,5-a]pyrimidin-7-yl-4-piperidyl)-(9-fluoro-3,5-dihydro-2H-pyrido[3,4-f][1,4]oxazepin-4-yl)methanone] was tested. Which IC50 did it give?
Its IC50 is 100 to 1000 nM.

How did the IC50 turn out when O=C(C1CCN(c2ncc(F)cn2)C[C@@H]1F)N1CCOc2c(F)cncc2C1 (stereo partly drawn) [Example 247] was run?
The IC50 was 0.1 to 100 nM.

For N#Cc1cncc2c1OCC1(CC1)N(C(=O)C1CCN(c3ncc(F)cn3)CC1)C2 [Example 230, 4-[1-(5-fluoropyrimidin-2-yl)piperidine-4-carbonyl]spiro[2,5-dihydropyrido[3,4-f][1,4]oxazepine-3,1′-cyclopropane]-9-carbonitrile], which IC50 is on record?
The IC50 was 100 to 1000 nM.

Which IC50 does the source give for CC1(C(=O)N2CCOc3c(C#N)cncc3C2)CCN(c2ncc(Cl)cn2)CC1(F)F (stereo not drawn) [Example 215, 4-(1-(5-chloropyrimidin-2-yl)-3,3-difluoro-4-methylpiperidine-4-carbonyl)-2,3,4,5-tetrahydropyrido[3,4-f][1,4]oxazepine-9-carbonitrile] here?
Its IC50 is 0.1 to 100 nM.

How did the IC50 turn out when CCC(C)(CC#N)C(=O)N1CCOc2c(C#N)cncc2C1 (single isomer, unassigned) [Example 264, 4-[2-(Cyanomethyl)-2-methyl-butanoyl]-3,5-dihydro-2H-pyrido[3,4-f][1,4]oxazepine-9-carbonitrile] was run?
Its IC50 is 0.1 to 100 nM.
